Measured values from ChEMBL document CHEMBL1158848, “Synthesis and separation of potential anticancer active dihalocephalomannine diastereomers from extracts of Taxus yunnanensis” (1998).

Assay: Cytotoxicity against human NCI60 cells
Format: functional

`CC(=O)O[C@H]1C(=O)[C@@]2(C)[C@H]([C@H](OC(=O)c3ccccc3)[C@]3(O)C[C@H](OC(=O)[C@H](O)[C@@H](NC(=O)[C@](C)(Cl)[C@@H](C)Cl)c4ccccc4)C(C)=C1C3(C)C)[C@]1(OC(C)=O)CO[C@@H]1C[C@@H]2O` showed a GI50 of 140 nM, an LC50 (50% lethal concentration) of 29000 nM and a TGI of 4200 nM.
For `CC(=O)O[C@H]1C(=O)[C@@]2(C)[C@H]([C@H](OC(=O)c3ccccc3)[C@]3(O)C[C@H](OC(=O)[C@H](O)[C@@H](NC(=O)[C@@](C)(Cl)[C@H](C)Cl)c4ccccc4)C(C)=C1C3(C)C)[C@]1(OC(C)=O)CO[C@@H]1C[C@@H]2O`, the GI50 was 210 nM, the LC50 (50% lethal concentration) was 32000 nM and the TGI was 6300 nM.
`CC(=O)O[C@H]1C(=O)[C@@]2(C)[C@H]([C@H](OC(=O)c3ccccc3)[C@]3(O)C[C@H](OC(=O)[C@H](O)[C@@H](NC(=O)c4ccccc4)c4ccccc4)C(C)=C1C3(C)C)[C@]1(OC(C)=O)CO[C@@H]1C[C@@H]2O` [PACLITAXEL] showed a GI50 of 0.65 nM and a TGI of 150 nM.
